Results from ChEMBL document CHEMBL1158961, “Picrasinoside H, a new quassinoid glucoside, and related compounds from the stem wood of Picrasma ailanthoides” (1991).

Tests used:
Assay type in all cases: functional
Conditions in all cases: read-out: ED50 (the source's name)
KB = assay: Cytotoxicity against human KB cells
TE-671 = assay: Cytotoxicity against human TE671 cells
A549 = assay: Cytotoxicity against human A549 cells
HCT-8 = assay: Cytotoxicity against human HCT8 cells
[1] = Cytotoxicity against human RPMI cells
P388 = assay: Cytotoxicity against mouse P388 cells

Measured: EC50

COC1=C[C@@H](C)[C@@H]2C[C@H]3O[C@@H](O[C@@H]4O[C@H](CO)[C@@H](O)[C@H](O)[C@H]4O)C[C@H]4C(C)=C(OC)C(=O)[C@H]([C@@]2(C)C1=O)[C@@]34C [PICRASINOSIDE B]
≤ 4 µg/mL: all assays above

COC1=C[C@@H](C)C2C[C@H]3O[C@@H](O[C@@H]4O[C@H](CO)[C@@H](O)[C@H](O)[C@H]4O)C[C@H]4[C@@H](C)[C@@H]5OCO[C@H]5[C@@H]([C@@]34C)[C@@]2(C)C1=O (stereo not given in full) [PICRASINOSIDE C]
≤ 4 µg/mL: all assays above

COC1=C[C@@H](C)[C@@H]2C[C@H]3O[C@@H](O[C@@H]4O[C@H](CO)[C@@H](O)[C@H](O)[C@H]4O)C[C@H]4[C@@H](C)[C@H](OC)[C@@H](OC(C)=O)[C@H]([C@@]2(C)C1=O)[C@@]34C [PICRASINOSIDE D]
≤ 4 µg/mL: all assays above

COC1=C[C@@H](C)[C@@H]2C[C@H]3O[C@@H](O[C@@H]4O[C@H](CO)[C@@H](O)[C@H](O)[C@H]4O)C[C@H]4[C@](C)(O)[C@H](OC)[C@@H](OC(C)=O)[C@H]([C@@]2(C)C1=O)[C@@]34C [PICRASINOSIDE E]
≤ 4 µg/mL: all assays above

COC1=C[C@@H](C)[C@@H]2C[C@H]3O[C@@H](O[C@@H]4O[C@H](CO)[C@@H](O)[C@H](O)[C@H]4O)C[C@H]4[C@](C)(O)[C@H](OC)[C@@H](O)[C@H]([C@@]2(C)C1=O)[C@@]34C [PICRASINOSIDE G]
not listed: TE-671
≤ 4 µg/mL: all other assays above

COC1=C[C@@H](C)[C@@H]2C[C@H]3O[C@@H](O[C@@H]4O[C@H](CO)[C@@H](O)[C@H](O)[C@H]4O)C[C@H]4[C@](C)(OC(C)=O)[C@@H]5OCO[C@H]5[C@H]([C@@]2(C)C1=O)[C@@]34C [PICRASINOSIDE H]
≤ 4 µg/mL: all assays above
